Here are results for 24 compounds from PubChem BioAssay AID330 (DTP/NCI, 2004).

Several values for one entry are separate records, joined by “and”; a condition that tells them apart may be missing. Equal entries are not always repeated. Toxic doses and inconclusive results are not listed.

The subject of the assay is P388 leukemia ip, CD2F1 mice, survival T/C. The experiment in a line: NCI In Vivo Anticancer Drug Screen. Data for tumor model P388 Leukemia (intraperitoneal) in CD2F1 (CDF1) mice. The conditions noted are these: endpoint: median survival time, higher = longer survival. The procedure, abridged: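 Mice carrying the transplanted tumor received test compound or vehicle. Survival was recorded in each group, and the value is the treated-group measurement divided by that of the vehicle-treated control group.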

Where [1] appears, read: dose: 50.0 mg/kg/injection, schedule: Q01DX009 (ip), vehicle: Klucel (hydroxypropylcellulose) (HPC).
[2] abbreviates: dose: 100.0 mg/kg/injection, schedule: Q01DX009 (ip), vehicle: Klucel (hydroxypropylcellulose) (HPC).
Where [3] appears, read: dose: 200.0 mg/kg/injection, schedule: Q01DX009 (ip), vehicle: Klucel (hydroxypropylcellulose) (HPC).
[4] abbreviates: dose: 50.0 mg/kg/injection, schedule: Q01DX009 (ip), vehicle: saline.
[5] abbreviates: dose: 100.0 mg/kg/injection, schedule: Q01DX009 (ip), vehicle: saline.
Setting [6] is: dose: 200.0 mg/kg/injection, schedule: Q01DX009 (ip), vehicle: saline.
The mark [7] stands for this setting: dose: 25.0 mg/kg/injection, schedule: Q01DX009 (ip), vehicle: saline.
The mark [8] stands for this setting: dose: 50.0 mg/kg/injection, schedule: Q01DX005 (ip), vehicle: Klucel (hydroxypropylcellulose) (HPC).
Setting [9] is: dose: 100.0 mg/kg/injection, schedule: Q01DX005 (ip), vehicle: Klucel (hydroxypropylcellulose) (HPC).
[10] abbreviates: dose: 200.0 mg/kg/injection, schedule: Q01DX005 (ip), vehicle: Klucel (hydroxypropylcellulose) (HPC).

Regarding `O=C1NCC(N2C(=O)CC3(CCCC3)C2=O)O1` (stereo not given), the T/C is, setting by setting: under setting [1], 100 % of control; under setting [2], 94 % of control; under setting [3], 91 % of control.

Take `O=C(OCCO)N1CCN(C(=O)OCCO)CC1`: the T/C runs as follows: under setting [4], 101 % of control; under setting [5], 103 % of control; under setting [6], 101 % of control; (dose: 400.0 mg/kg/injection, schedule: Q01DX009 (ip), vehicle: saline) 98 % of control.

For the compound `CN1CCC2CC(=O)NC1(C)C2(C)C` (stereo not given), the T/C is, setting by setting: (dose: 100.0 mg/kg/injection, schedule: Q01DX001 (ip), vehicle: saline) 104 % of control; (dose: 200.0 mg/kg/injection, schedule: Q01DX001 (ip), vehicle: saline) 106 % of control; (dose: 400.0 mg/kg/injection, schedule: Q01DX001 (ip), vehicle: saline) 106 % of control.

For the compound `COc1cccc2c1C(=O)c1c(O)c3c(c(O)c1C2=O)C[C@@](O)(C(=O)CO)C[C@@H]3OC1CC(NCC#N)C(O)C(C)O1` (stereo not given in full), the T/C reads like this: (dose: 8.0 mg/kg/injection, schedule: Q04DX003 (ip), vehicle: saline + alcohol) 153 % of control; (dose: 32.0 mg/kg/injection, schedule: Q04DX003 (ip), vehicle: saline + Tween-80 + alcohol) 108 % of control; (dose: 32.0 mg/kg/injection, schedule: Q04DX003 (ip), vehicle: saline + alcohol) 117 % of control.

With `NC(=O)C1CCCN1C(=O)C1CCCN(Cc2cc(CN3CCCC(C(=O)N4CCCC4C(N)=O)C3)cc(CN3CCCC(C(=O)N4CCCC4C(N)=O)C3)c2)C1` (stereo not given), the T/C (dose: 60.0 mg/kg/injection, schedule: Q01DX005 (ip), vehicle: saline) was 104 % of control; the T/C (dose: 120.0 mg/kg/injection, schedule: Q01DX005 (ip), vehicle: saline) is 98 % of control; the T/C (dose: 240.0 mg/kg/injection, schedule: Q01DX005 (ip), vehicle: saline) is 95 % of control.

Take `CC1[C@@H]2CC=C3[C@H]4CCC5Cc6nc7c(nc6C[C@@]5(C)C4(O)CC(=O)[C@]32CO[C@]12OC(C)(C)CC2O)CC1CC[C@@H]2C3=C[C@H]4O[C@@]5(O[C@@](C)(CO)C[C@@H]5O)C(C)[C@@]4(O)[C@]3(C)[C@@H](O)CC2[C@]1(C)C7` (stereo not given in full): the T/C is, setting by setting: (dose: 10.0 micrograms/kg/injection, schedule: Q01DX005 (ip), vehicle: saline + alcohol) 114 % of control and 117 % of control; (dose: 20.0 micrograms/kg/injection, schedule: Q01DX005 (ip), vehicle: saline + alcohol) 121 % of control.

On to `CN(C)CC(CN(C)C)C(=O)/C=C/c1ccc(Cl)cc1Cl`, for which the T/C is 104 % of control (dose: 7.5 mg/kg/injection, schedule: Q01DX005 (ip), vehicle: saline); 97 % of control (dose: 15.0 mg/kg/injection, schedule: Q01DX005 (ip), vehicle: saline); 100 % of control (dose: 30.0 mg/kg/injection, schedule: Q01DX005 (ip), vehicle: saline).

With `CC1=CC2ON=C(c3c(C)cc(C)cc3C)N2N(C(=O)c2ccccc2)C=C1` (stereo not given), the T/C is 102 % of control under setting [4], 93 % of control under setting [5] and 93 % of control under setting [6].

For the compound `Clc1ccc(C[n+]2ccccc2)cc1Cl`, the T/C is, setting by setting: (dose: 5.0 mg/kg/injection, schedule: Q04DX003 (ip), vehicle: saline) 120 % of control; (dose: 10.0 mg/kg/injection, schedule: Q04DX003 (ip), vehicle: saline) 110 % of control; (dose: 20.0 mg/kg/injection, schedule: Q04DX003 (ip), vehicle: saline) 110 % of control.

On to `O=C(O)CNC(=O)CNc1nc(Cl)nc(NCC(=O)NCC(=O)O)n1`, for which the T/C is, setting by setting: (dose: 60.0 mg/kg/injection, schedule: Q01DX005 (ip), vehicle: Klucel (hydroxypropylcellulose) (HPC)) 97 % of control; (dose: 120.0 mg/kg/injection, schedule: Q01DX005 (ip), vehicle: Klucel (hydroxypropylcellulose) (HPC)) 96 % of control; (dose: 240.0 mg/kg/injection, schedule: Q01DX005 (ip), vehicle: Klucel (hydroxypropylcellulose) (HPC)) 93 % of control.

Consider `c1cncc(CNCc2cccnc2)c1`, for which the T/C reads like this: under setting [7], 94 % of control; under setting [4], 110 % of control; under setting [5], 97 % of control; under setting [6], 94 % of control.

`COc1cccc2c1C(=O)c1c(O)c3c(c(O)c1C2=O)C[C@@](O)(C(C)O)C[C@@H]3OC1CC(NC(=O)C(F)(F)F)C(O)C(C)O1` (stereo not given in full): the T/C is 118 % of control (dose: 1.56 mg/kg/injection, schedule: Q01DX009 (ip), vehicle: water); 150 % of control (dose: 6.25 mg/kg/injection, schedule: Q01DX009 (ip), vehicle: water); 156 % of control and 169 % of control (dose: 12.5 mg/kg/injection, schedule: Q01DX009 (ip), vehicle: water); 181 % of control and 189 % of control (dose: 25.0 mg/kg/injection, schedule: Q01DX009 (ip), vehicle: water).

Take `C[C@]12CC[C@@H]3c4ccc(O)cc4CC[C@H]3[C@@H]1CC[C@@H]2NCCCCCCO`: the T/C under setting [8] is 92 % of control and the T/C under setting [9] is 97 % of control.

Take `COc1cc(S(=O)(=O)O)ccc1N=N/C(=N\Nc1ccc(S(=O)(=O)O)cc1OC)C(N)=O`: the T/C under setting [8] is 100 % of control; the T/C under setting [9] is 108 % of control and 92 % of control; the T/C under setting [10] was 103 % of control and 93 % of control.

`O=C(O)CC(O)C(F)(F)C(F)(F)C(F)(F)F` (stereo not given): the T/C (dose: 18.75 mg/kg/injection, schedule: Q04DX003 (ip), vehicle: saline) is 100 % of control; the T/C (dose: 37.5 mg/kg/injection, schedule: Q04DX003 (ip), vehicle: saline) was 95 % of control; the T/C (dose: 75.0 mg/kg/injection, schedule: Q04DX003 (ip), vehicle: saline) is 109 % of control.

With `CC1CC2([Si](C)(C)C)C(=O)NC(=O)NC12` (stereo not given), the T/C is 112 % of control (dose: 25.0 mg/kg/injection, schedule: Q01DX005 (ip), vehicle: Klucel (hydroxypropylcellulose) (HPC)); 103 % of control under setting [8]; 112 % of control under setting [9]; 99 % of control under setting [10].

For `CCCCCCCCCCCCCCCCOc1ccc(S(=O)(=O)N/N=c2/sc3ccc(S(=O)(=O)O)cc3n2C)cc1C(=O)O`, the T/C is 99 % of control under setting [7]; 100 % of control under setting [4]; 102 % of control (dose: 100.0 mg/kg/injection, schedule: Q01DX009 (ip), vehicle: saline with Tween-80); 86 % of control under setting [5].

As for `[CH3][Sn]([CH3])([Cl])[S]CCN`, the T/C by setting is: (dose: 0.78 mg/kg/injection, schedule: Q01DX009 (ip), vehicle: saline) 99 % of control; (dose: 1.56 mg/kg/injection, schedule: Q01DX009 (ip), vehicle: saline) 105 % of control; (dose: 3.12 mg/kg/injection, schedule: Q01DX009 (ip), vehicle: saline) 123 % of control; (dose: 6.25 mg/kg/injection, schedule: Q01DX009 (ip), vehicle: saline) 120 % of control.

Take `Cc1cc2nc(C=C(C(F)(F)F)C(F)(F)F)oc2cc1C`: the T/C was 98 % of control (dose: 1.56 mg/kg/injection, schedule: Q01DX009 (ip), vehicle: saline with Tween-80); 98 % of control (dose: 3.13 mg/kg/injection, schedule: Q01DX009 (ip), vehicle: saline with Tween-80); 95 % of control (dose: 6.25 mg/kg/injection, schedule: Q01DX009 (ip), vehicle: saline with Tween-80); 93 % of control (dose: 12.5 mg/kg/injection, schedule: Q01DX009 (ip), vehicle: saline with Tween-80).

In the case of `CC(=O)NC1C(OC(C)=O)OC(CS[As](C)C)C(OC(C)=O)C1OC(C)=O` (stereo not given), the T/C was 118 % of control (dose: 25.0 mg/kg/injection, schedule: Q01DX009 (ip), vehicle: saline with Tween-80) and 111 % of control (dose: 50.0 mg/kg/injection, schedule: Q01DX009 (ip), vehicle: saline with Tween-80).

`CSc1nc(N)c(C(=O)NC2CCCCC2)s1`: the T/C under setting [1] was 100 % of control, the T/C under setting [2] is 100 % of control and the T/C under setting [3] was 99 % of control.

Regarding `CNc1cc2nc3ccccc3nc2cc1O`, the T/C is, setting by setting: under setting [4], 104 % of control; under setting [5], 92 % of control; under setting [6], 86 % of control.

Regarding `COc1cc(C)c(/C(=N/O)n2nnc(-c3ccc(Cl)cc3)n2)c(C)c1`, the T/C is, setting by setting: (dose: 100.0 mg/kg/injection, schedule: Q01DX001 (ip), vehicle: saline with Tween-80) 123 % of control; (dose: 200.0 mg/kg/injection, schedule: Q01DX001 (ip), vehicle: saline with Tween-80) 114 % of control; (dose: 400.0 mg/kg/injection, schedule: Q01DX001 (ip), vehicle: saline with Tween-80) 95 % of control.

For `CCCCCCCC/C=C\CCCCCCCC[N+]1([O-])CCOCC1`, the T/C under setting [4] was 102 % of control and the T/C under setting [5] was 116 % of control.
